{
  "source": "ChEMBL document CHEMBL1781982",
  "about": "“Evaluation of antioxidant and antimicrobial activities of Bergenin and its derivatives obtained by chemoenzymatic synthesis” (Eur J Med Chem, 2011)",
  "key": {"[1]": {"molecular_target": "Xanthine dehydrogenase/oxidase (Homo sapiens, UniProt P47989)", "sequence (P47989 whole entry)": "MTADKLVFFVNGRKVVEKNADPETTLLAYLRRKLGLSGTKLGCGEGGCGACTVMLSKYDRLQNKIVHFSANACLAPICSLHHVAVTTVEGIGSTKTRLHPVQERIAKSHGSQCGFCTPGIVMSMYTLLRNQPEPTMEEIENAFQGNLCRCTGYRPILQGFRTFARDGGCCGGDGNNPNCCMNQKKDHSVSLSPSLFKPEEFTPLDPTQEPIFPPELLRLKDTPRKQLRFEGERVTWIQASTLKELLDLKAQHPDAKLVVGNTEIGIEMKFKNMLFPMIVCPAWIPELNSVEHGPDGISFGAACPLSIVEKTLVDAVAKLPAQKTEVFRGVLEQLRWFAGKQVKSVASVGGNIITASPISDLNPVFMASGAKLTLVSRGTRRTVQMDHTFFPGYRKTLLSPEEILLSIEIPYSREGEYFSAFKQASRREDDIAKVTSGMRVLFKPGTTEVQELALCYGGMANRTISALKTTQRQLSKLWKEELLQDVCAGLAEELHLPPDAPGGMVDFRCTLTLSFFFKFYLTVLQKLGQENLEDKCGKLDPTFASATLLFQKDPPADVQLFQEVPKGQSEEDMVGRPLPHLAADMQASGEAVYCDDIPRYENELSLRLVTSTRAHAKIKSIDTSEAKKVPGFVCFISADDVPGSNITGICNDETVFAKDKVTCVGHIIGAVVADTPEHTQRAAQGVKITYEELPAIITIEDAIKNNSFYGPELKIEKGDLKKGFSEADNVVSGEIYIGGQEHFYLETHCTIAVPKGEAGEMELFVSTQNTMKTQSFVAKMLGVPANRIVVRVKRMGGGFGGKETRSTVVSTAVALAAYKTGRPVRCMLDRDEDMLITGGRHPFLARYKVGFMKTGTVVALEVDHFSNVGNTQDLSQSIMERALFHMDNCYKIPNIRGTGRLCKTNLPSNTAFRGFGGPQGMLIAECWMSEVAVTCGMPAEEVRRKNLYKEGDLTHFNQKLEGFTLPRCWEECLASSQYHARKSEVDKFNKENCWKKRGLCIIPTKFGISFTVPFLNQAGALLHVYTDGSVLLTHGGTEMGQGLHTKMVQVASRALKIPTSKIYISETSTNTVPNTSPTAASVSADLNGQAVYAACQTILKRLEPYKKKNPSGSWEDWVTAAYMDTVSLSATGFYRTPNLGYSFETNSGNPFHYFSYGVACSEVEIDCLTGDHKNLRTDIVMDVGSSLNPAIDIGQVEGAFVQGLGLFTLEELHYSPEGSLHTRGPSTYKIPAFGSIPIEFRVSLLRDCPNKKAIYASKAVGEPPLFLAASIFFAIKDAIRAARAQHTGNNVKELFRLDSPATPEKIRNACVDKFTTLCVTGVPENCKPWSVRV", "test": "Inhibition of xanthine oxidase assessed as reduction of uric acid production from xanthine at 10 to 50 uM preincubated for 15 mins measured after 30 mins by spectrophotometry", "conditions": "0.5 h"}, "Klebsiella pneumoniae [2]": {"tested_on": "Klebsiella pneumoniae", "test": "Antibacterial activity against Klebsiella pneumoniae MTCC 139 at 2000 ug/ml after 24 hrs by agar-well diffusion method", "assay_type": "functional", "conditions": "MTCC 139, 24 h, read-out: DIZ"}, "Bacillus subtilis [3]": {"tested_on": "Bacillus subtilis", "test": "Antibacterial activity against Bacillus subtilis MTCC 441 at 2000 ug/ml after 24 hrs by agar-well diffusion method", "assay_type": "functional", "conditions": "MTCC 441, 24 h, read-out: DIZ"}, "Staphylococcus aureus [4]": {"tested_on": "Staphylococcus aureus", "test": "Antibacterial activity against Staphylococcus aureus MTCC 2940 at 2000 ug/ml after 24 hrs by agar-well diffusion method", "assay_type": "functional", "conditions": "MTCC 2940, 24 h, read-out: DIZ"}, "[5]": {"tested_on": "Radical scavenging activity", "test": "Antioxidant activity assessed as DPPH free radical scavenging activity at 200 to 1000 uM after 5 mins", "assay_type": "functional"}, "Escherichia coli [6]": {"tested_on": "Escherichia coli", "test": "Antibacterial activity against Escherichia coli MTCC 739 at 2000 ug/ml after 24 hrs by agar-well diffusion method", "assay_type": "functional", "conditions": "MTCC 739, 24 h, read-out: DIZ"}, "Escherichia coli [7]": {"tested_on": "Escherichia coli", "test": "Antibacterial activity against Escherichia coli MTCC 739 at 30 ug/disc after 24 hrs", "assay_type": "functional", "conditions": "MTCC 739, 24 h, read-out: DIZ"}, "Bacillus subtilis [8]": {"tested_on": "Bacillus subtilis", "test": "Antibacterial activity against Bacillus subtilis MTCC 441 at 30 ug/disc after 24 hrs", "assay_type": "functional", "conditions": "MTCC 441, 24 h, read-out: DIZ"}, "Staphylococcus aureus [9]": {"tested_on": "Staphylococcus aureus", "test": "Antibacterial activity against Staphylococcus aureus MTCC 2940 at 30 ug/disc after 24 hrs", "assay_type": "functional", "conditions": "MTCC 2940, 24 h, read-out: DIZ"}, "Klebsiella pneumoniae [10]": {"tested_on": "Klebsiella pneumoniae", "test": "Antibacterial activity against Klebsiella pneumoniae MTCC 139 at 30 ug/disc after 24 hrs", "assay_type": "functional", "conditions": "MTCC 139, 24 h, read-out: DIZ"}},
  "note": "Activity calls are given as the source filed them. The rule behind the calls is not given here.",
  "data": [
    {"smiles": "O=c1c(O)c(-c2ccc(O)c(O)c2)oc2cc(O)cc(O)c12", "note": "[QUERCETIN]", "values": [
      {"measurement": "inhibition (INH)", "setting": "[1]", "value": "Active"}
    ]},
    {"smiles": "COc1c(OC(=O)c2ccccc2)cc2c(c1OC(C)=O)[C@@H]1O[C@H](COC(C)=O)[C@@H](OC(C)=O)[C@H](OC(C)=O)[C@H]1OC2=O", "values": [
      {"measurement": "zone of inhibition at 2000 µg/mL", "setting": "Klebsiella pneumoniae [2]", "value": 6.3, "unit": "mm"},
      {"measurement": "zone of inhibition at 2000 µg/mL", "setting": "Bacillus subtilis [3]", "value": 4.3, "unit": "mm"},
      {"measurement": "zone of inhibition at 2000 µg/mL", "setting": "Staphylococcus aureus [4]", "value": 5.5, "unit": "mm"},
      {"measurement": "Activity", "setting": "[5]", "value": "Active"},
      {"measurement": "inhibition (INH)", "setting": "[1]", "value": "Not Active"},
      {"measurement": "zone of inhibition at 2000 µg/mL", "setting": "Escherichia coli [6]", "value": 9.3, "unit": "mm"}
    ]},
    {"smiles": "NC[C@H]1O[C@H](O[C@H]2[C@H](O)[C@@H](O[C@H]3O[C@H](CO)[C@@H](O)[C@H](N)[C@H]3O)[C@H](N)C[C@@H]2N)[C@H](O)[C@@H](O)[C@@H]1O", "note": "[KANAMYCIN]", "values": [
      {"measurement": "zone of inhibition at 30 µg/disc", "setting": "Escherichia coli [7]", "value": 18, "unit": "mm"},
      {"measurement": "zone of inhibition at 30 µg/disc", "setting": "Bacillus subtilis [8]", "value": 23.2, "unit": "mm"},
      {"measurement": "zone of inhibition at 30 µg/disc", "setting": "Staphylococcus aureus [9]", "value": 25.1, "unit": "mm"},
      {"measurement": "zone of inhibition at 30 µg/disc", "setting": "Klebsiella pneumoniae [10]", "value": 19.5, "unit": "mm"}
    ]},
    {"smiles": "COc1c(O)cc2c(c1O)[C@@H]1O[C@H](CO)[C@@H](O)[C@H](O)[C@H]1OC2=O", "note": "[BERGENIN]", "values": [
      {"measurement": "zone of inhibition at 2000 µg/mL", "setting": "Klebsiella pneumoniae [2]", "value": 2.5, "unit": "mm"},
      {"measurement": "zone of inhibition at 2000 µg/mL", "setting": "Bacillus subtilis [3]", "value": 1.3, "unit": "mm"},
      {"measurement": "zone of inhibition at 2000 µg/mL", "setting": "Staphylococcus aureus [4]", "value": 2.1, "unit": "mm"},
      {"measurement": "Activity", "setting": "[5]", "value": "Active"},
      {"measurement": "inhibition (INH)", "setting": "[1]", "value": "Not Active"},
      {"measurement": "zone of inhibition at 2000 µg/mL", "setting": "Escherichia coli [6]", "value": 3.3, "unit": "mm"}
    ]},
    {"smiles": "COc1c(O)cc2c(c1OC(C)=O)[C@@H]1O[C@H](COC(C)=O)[C@@H](OC(C)=O)[C@H](OC(C)=O)[C@H]1OC2=O", "values": [
      {"measurement": "zone of inhibition at 2000 µg/mL", "setting": "Klebsiella pneumoniae [2]", "value": 3.3, "unit": "mm"},
      {"measurement": "zone of inhibition at 2000 µg/mL", "setting": "Bacillus subtilis [3]", "value": 4.3, "unit": "mm"},
      {"measurement": "zone of inhibition at 2000 µg/mL", "setting": "Staphylococcus aureus [4]", "value": 3.2, "unit": "mm"},
      {"measurement": "Activity", "setting": "[5]", "value": "Active"},
      {"measurement": "zone of inhibition at 2000 µg/mL", "setting": "Escherichia coli [6]", "value": 14.1, "unit": "mm"}
    ]},
    {"smiles": "CCCCCCCCCC(=O)Oc1cc2c(c(OC(C)=O)c1OC)[C@@H]1O[C@H](COC(C)=O)[C@@H](OC(C)=O)[C@H](OC(C)=O)[C@H]1OC2=O", "values": [
      {"measurement": "zone of inhibition at 2000 µg/mL", "setting": "Klebsiella pneumoniae [2]", "value": 4.2, "unit": "mm"},
      {"measurement": "zone of inhibition at 2000 µg/mL", "setting": "Bacillus subtilis [3]", "value": 3.9, "unit": "mm"},
      {"measurement": "zone of inhibition at 2000 µg/mL", "setting": "Staphylococcus aureus [4]", "value": 3.2, "unit": "mm"},
      {"measurement": "Activity", "setting": "[5]", "value": "Active"},
      {"measurement": "inhibition (INH)", "setting": "[1]", "value": "Not Active"},
      {"measurement": "zone of inhibition at 2000 µg/mL", "setting": "Escherichia coli [6]", "value": 6.2, "unit": "mm"}
    ]},
    {"smiles": "CCCCCC(=O)Oc1cc2c(c(OC(C)=O)c1OC)[C@@H]1O[C@H](COC(C)=O)[C@@H](OC(C)=O)[C@H](OC(C)=O)[C@H]1OC2=O", "values": [
      {"measurement": "zone of inhibition at 2000 µg/mL", "setting": "Klebsiella pneumoniae [2]", "value": 5.4, "unit": "mm"},
      {"measurement": "zone of inhibition at 2000 µg/mL", "setting": "Bacillus subtilis [3]", "value": 7.4, "unit": "mm"},
      {"measurement": "zone of inhibition at 2000 µg/mL", "setting": "Staphylococcus aureus [4]", "value": 6.4, "unit": "mm"},
      {"measurement": "Activity", "setting": "[5]", "value": "Active"},
      {"measurement": "inhibition (INH)", "setting": "[1]", "value": "Not Active"},
      {"measurement": "zone of inhibition at 2000 µg/mL", "setting": "Escherichia coli [6]", "value": 21.4, "unit": "mm"}
    ]},
    {"smiles": "COc1c(OC(C)=O)cc2c(c1OC(C)=O)[C@@H]1O[C@H](COC(C)=O)[C@@H](OC(C)=O)[C@H](OC(C)=O)[C@H]1OC2=O", "note": "[BERGENIN PENTAACETATE]", "values": [
      {"measurement": "zone of inhibition at 2000 µg/mL", "setting": "Klebsiella pneumoniae [2]", "value": 5.1, "unit": "mm"},
      {"measurement": "zone of inhibition at 2000 µg/mL", "setting": "Bacillus subtilis [3]", "value": 5.2, "unit": "mm"},
      {"measurement": "zone of inhibition at 2000 µg/mL", "setting": "Staphylococcus aureus [4]", "value": 8.3, "unit": "mm"},
      {"measurement": "Activity", "setting": "[5]", "value": "Active"},
      {"measurement": "zone of inhibition at 2000 µg/mL", "setting": "Escherichia coli [6]", "value": 16.2, "unit": "mm"}
    ]},
    {"smiles": "CCCCCCCCCCCCCC(=O)Oc1cc2c(c(OC(C)=O)c1OC)[C@@H]1O[C@H](COC(C)=O)[C@@H](OC(C)=O)[C@H](OC(C)=O)[C@H]1OC2=O", "values": [
      {"measurement": "zone of inhibition at 2000 µg/mL", "setting": "Klebsiella pneumoniae [2]", "value": 3.1, "unit": "mm"},
      {"measurement": "zone of inhibition at 2000 µg/mL", "setting": "Bacillus subtilis [3]", "value": 2.2, "unit": "mm"},
      {"measurement": "zone of inhibition at 2000 µg/mL", "setting": "Staphylococcus aureus [4]", "value": 2.4, "unit": "mm"},
      {"measurement": "Activity", "setting": "[5]", "value": "Active"},
      {"measurement": "inhibition (INH)", "setting": "[1]", "value": "Not Active"},
      {"measurement": "zone of inhibition at 2000 µg/mL", "setting": "Escherichia coli [6]", "value": 5.4, "unit": "mm"}
    ]}
  ]
}
